In the supplement of paper PMC10307832:

Assays:
Experiment in all cases: relative viability (nuclei count vs DMSO), 5 days (fraction); higher = more cells survive
RAF265 + Tozasertib = compound: Cn1c(Nc2ccc(C(F)(F)F)cc2)nc2cc(Oc3ccnc(-c4ncc(C(F)(F)F)[nH]4)c3)ccc21 [RAF265] + Cc1cc(Nc2cc(N3CCN(C)CC3)nc(Sc3ccc(NC(=O)C4CC4)cc3)n2)n[nH]1 [Tozasertib] (partner 0.1 µM)
Summary of the method: (§1)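 The day after seeding in 1536-well plates, lung cancer cell lines were treated by pin tool with a single drug, or with a fixed anchor-drug dose together with five library-drug doses (not always all listed) in √10 steps. After 5 days, a combined fix-and-stain solution (final 0.05% Triton X-100, 1% formaldehyde, 1 ug/ml Hoechst) was added. Nuclei counted on 4× images gave relative viability as treated counts over vehicle counts, reported as the median of duplicate plates.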

IPA-3 + OSI-027 = compound: C1=CC=C2C(=C1)C=CC(=C2SSC3=C(C=CC4=CC=CC=C43)O)O [IPA-3] + COc1cccc2cc(-c3nc([C@H]4CC[C@H](C(=O)O)CC4)n4ncnc(N)c34)[nH]c12 [OSI-027] (partner 0.5 µM)
Summary of the method: as §1

IPA-3 + Trametinib = compound: C1=CC=C2C(=C1)C=CC(=C2SSC3=C(C=CC4=CC=CC=C43)O)O [IPA-3] + CC(=O)Nc1cccc(-n2c(=O)n(C3CC3)c(=O)c3c(Nc4ccc(I)cc4F)n(C)c(=O)c(C)c32)c1 [Trametinib] (partner 0.02 µM)
Summary of the method: as §1

RAF265 + Linsitinib = compound: Cn1c(Nc2ccc(C(F)(F)F)cc2)nc2cc(Oc3ccnc(-c4ncc(C(F)(F)F)[nH]4)c3)ccc21 [RAF265] + C[C@]1(O)C[C@@H](c2nc(-c3ccc4ccc(-c5ccccc5)nc4c3)c3c(N)nccn32)C1 [Linsitinib] (partner 1 µM)
Summary of the method: as §1

Cell Line | relative viability (RAF265 + Tozasertib; first compound 0.01 µM) | relative viability (RAF265 + Tozasertib; first compound 0.03162 µM) | relative viability (RAF265 + Tozasertib; first compound 0.1 µM) | relative viability (RAF265 + Tozasertib; first compound 0.3162 µM) | relative viability (RAF265 + Tozasertib; first compound 1 µM) | relative viability (IPA-3 + OSI-027; first compound 0.2 µM) | relative viability (IPA-3 + OSI-027; first compound 0.6325 µM) | relative viability (IPA-3 + OSI-027; first compound 2 µM) | relative viability (IPA-3 + OSI-027; first compound 6.325 µM) | relative viability (IPA-3 + OSI-027; first compound 20 µM) | relative viability (IPA-3 + Trametinib; first compound 0.2 µM) | relative viability (IPA-3 + Trametinib; first compound 0.6325 µM) | relative viability (IPA-3 + Trametinib; first compound 2 µM) | relative viability (IPA-3 + Trametinib; first compound 6.325 µM) | relative viability (IPA-3 + Trametinib; first compound 20 µM) | relative viability (RAF265 + Linsitinib; first compound 0.01 µM) | relative viability (RAF265 + Linsitinib; first compound 0.03162 µM) | relative viability (RAF265 + Linsitinib; first compound 0.1 µM) | relative viability (RAF265 + Linsitinib; first compound 0.3162 µM) | relative viability (RAF265 + Linsitinib; first compound 1 µM)
NCI-H1437 | 0.408 | 0.437 | 0.427 | 0.45 | 0.365 | 1.1 | 0.942 | 0.68 | 0.989 | 1.17 | 0.712 | 0.611 | 0.483 | 0.468 | 0.546 | 1.09 | 1.01 | 1.08 | 1 | 0.945
NCI-H1651 | 0.744 | 0.718 | 0.731 | 0.703 | 0.426 | 0.71 | 0.73 | 0.695 | 0.804 | 0.706 | 0.945 | 0.798 | 0.883 | 0.904 | 0.971 | 0.999 | 0.976 | 1.07 | 0.74 | 0.737
NCI-H1666 | 0.635 | 0.664 | 0.689 | 0.618 | 0.488 | 0.976 | 0.839 | 0.828 | 0.743 | 0.87 | 0.902 | 0.855 | 0.886 | 0.924 | 0.884 | 0.894 | 0.923 | 0.888 | 0.854 | 0.565
NCI-H1734 | 0.306 | 0.276 | 0.255 | 0.232 | 0.215 | 0.619 | 0.632 | 0.507 | 0.612 | 0.56 | 0.661 | 0.628 | 0.707 | 0.618 | 0.72 | 1.02 | 0.883 | 0.717 | 0.676 | 0.421
NCI-H1755 | 0.556 | 0.634 | 0.598 | 0.552 | 0.402 | 0.831 | 0.616 | 0.688 | 0.607 | 0.702 | 0.764 | 0.797 | 0.739 | 0.739 | 0.753 | 0.959 | 1.06 | 0.988 | 0.825 | 0.579
NCI-H1793 | 0.404 | 0.421 | 0.361 |  | 0.172 | 0.286 | 0.136 | 0.291 | 0.314 | 0.323 | 0.456 | 0.373 | 0.448 | 0.376 | 0.437 | 0.794 | 0.767 | 0.779 | 0.46 | 0.376
NCI-H1915 | 0.437 | 0.428 | 0.457 | 0.278 | 0.163 | 0.567 | 0.564 | 0.626 | 0.582 | 0.61 | 0.301 | 0.271 | 0.286 | 0.295 | 0.318 | 1.1 | 1.01 | 1.03 | 0.653 | 0.323
NCI-H1944 | 0.265 | 0.248 | 0.265 | 0.234 | 0.185 | 0.454 | 0.394 | 0.396 | 0.479 | 0.444 | 0.436 | 0.433 | 0.401 | 0.42 | 0.415 | 1.25 | 1.37 | 1.08 | 0.64 | 0.716
NCI-H1975 | 0.676 | 0.621 | 0.7 | 0.379 | 0.126 | 0.936 | 0.732 | 0.675 | 0.762 | 0.706 | 0.328 | 0.325 | 0.331 | 0.424 | 0.323 | 0.855 | 0.712 | 0.567 | 0.43 | 0.361
NCI-H1993 | 0.606 | 0.57 | 0.571 | 0.593 | 0.594 | 0.555 | 0.556 | 0.539 | 0.556 | 0.504 | 0.491 | 0.475 | 0.468 | 0.558 | 0.506 | 0.68 | 0.763 | 0.66 | 0.713 | 0.722
NCI-H2009 | 0.758 | 0.721 | 0.745 | 0.809 | 0.476 | 0.918 | 0.6 | 0.649 | 0.59 | 0.359 | 0.307 | 0.266 | 0.245 | 0.279 | 0.241 | 1.23 | 1.12 | 1.13 | 1.04 | 0.788
NCI-H2023 | 0.314 | 0.497 | 0.466 | 0.286 | 0.183 | 0.507 | 0.352 | 0.415 | 0.54 | 0.421 | 0.735 | 0.453 | 0.659 | 0.612 | 0.584 | 0.588 | 0.743 | 0.776 | 0.644 | 0.424
NCI-H2085 | 0.965 | 0.706 | 0.914 | 0.822 | 0.558 | 0.982 | 0.665 | 0.742 | 0.9 | 0.817 | 0.625 | 0.602 | 0.637 | 0.577 | 0.714 | 0.894 | 0.945 | 0.938 | 0.98 | 0.917
NCI-H2087 | 0.268 | 0.266 | 0.284 | 0.205 | 0.152 | 0.616 | 0.543 | 0.586 | 0.602 | 0.642 | 0.235 | 0.267 | 0.178 | 0.227 | 0.271 | 0.827 | 0.844 | 0.9 | 0.699 | 0.587
NCI-H2126 | 0.905 | 0.844 | 0.826 | 0.881 | 0.607 | 0.727 | 0.748 | 0.666 | 0.688 | 0.75 | 0.569 | 0.56 | 0.521 | 0.501 | 0.6 | 0.712 | 0.691 | 0.743 | 0.574 | 0.49
